Data published in paper PMC11480411, “Mucosal sugars delineate pyrazine vs pyrazinone autoinducer signaling in Klebsiella oxytoca” (Nature Communications, 2024).
Several values for one entry are separate records, joined by “and”; a condition that tells them apart may be missing. Equal entries are not always repeated.

Experiments:
[1] = molecular target: T1, HRH2 (Homo sapiens, UniProt P25021); assay: PRESTO-Tango GPCR screen and dose-response; type: cell-based; conditions: for GPCR activation (heatmap value): HRH2, 100 µM; for HRH2 dose-response raw reporter signal (Fig. 5b source data): replicate wells
T1 construct: expressed in transfected cells; host or cells: HTLA cells (HEK293 line stably expressing β-arrestin-TEV and tTA-Luciferase)
T1 sequence (P25021 whole entry): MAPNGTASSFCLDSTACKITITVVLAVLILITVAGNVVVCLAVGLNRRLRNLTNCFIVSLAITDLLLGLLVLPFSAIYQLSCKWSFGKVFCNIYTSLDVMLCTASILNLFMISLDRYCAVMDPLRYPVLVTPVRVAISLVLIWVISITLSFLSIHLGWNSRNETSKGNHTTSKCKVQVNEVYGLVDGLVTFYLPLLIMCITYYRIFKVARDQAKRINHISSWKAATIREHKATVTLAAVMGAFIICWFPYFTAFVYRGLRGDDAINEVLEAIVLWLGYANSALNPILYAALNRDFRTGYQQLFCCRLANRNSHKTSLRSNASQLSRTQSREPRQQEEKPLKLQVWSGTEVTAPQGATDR
Procedure, shortened: (§1)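 Each receptor was expressed from a Tango plasmid in HTLA cells, which stably carry β-arrestin-TEV and a tTA-driven luciferase reporter. Single-point screening used 100 μM final compound for 20 h, and the signal was normalised to PBS control. Concentration-response testing spanned 10^−4 to 10^−15 M.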

[2] = molecular target: T2, histamine receptor H4 (HRH4) (Homo sapiens, UniProt Q9H3N8); assay: PRESTO-Tango GPCR screen and dose-response; type: cell-based; conditions: for GPCR activation (heatmap value): HRH4, 100 µM; for HRH4 dose-response raw reporter signal (Fig. 5b source data): replicate wells; for EC50: PRESTO-Tango dose-response, n = 3, read-out: EC50 (HRH4 activation)
T2 construct: expressed in transfected cells; host or cells: HTLA cells (HEK293 line stably expressing β-arrestin-TEV and tTA-Luciferase)
T2 sequence (Q9H3N8 whole entry): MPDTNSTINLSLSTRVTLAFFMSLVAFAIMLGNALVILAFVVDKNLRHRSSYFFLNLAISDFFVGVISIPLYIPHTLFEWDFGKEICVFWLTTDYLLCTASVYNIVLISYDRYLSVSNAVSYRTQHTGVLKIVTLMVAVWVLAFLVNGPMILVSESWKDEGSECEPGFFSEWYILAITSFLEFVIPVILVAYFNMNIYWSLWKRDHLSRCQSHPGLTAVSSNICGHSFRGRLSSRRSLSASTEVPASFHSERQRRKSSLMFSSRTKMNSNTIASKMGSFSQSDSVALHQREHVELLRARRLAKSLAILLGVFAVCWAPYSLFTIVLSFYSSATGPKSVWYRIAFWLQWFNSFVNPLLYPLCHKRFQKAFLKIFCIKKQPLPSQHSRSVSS
Procedure, shortened: as §1

[3] = test system: ∆pyr K. oxytoca; assay: RNA-seq of compound-supplemented ∆pyr K. oxytoca; type: cell-based, Klebsiella oxytoca ATCC 8724; conditions: 10 µM
Procedure: A ∆pyr K. oxytoca glycerol stock was streaked onto an LB-Agar plate supplemented with spectinomycin (50 µg/mL) and incubated aerobically at 30°C for 24 h in a stationary incubator. Single colonies were grown for 24 h aerobically in 5 mL of M9 minimal medium supplemented with 5 g/L casamino acids and 0.4% D-galactose at 30 °C and 250 rpm. Each ∆pyr K. oxytoca overnight culture was diluted 1:1000 into fresh medium (5 mL) and incubated aerobically at 30 °C and 250 rpm to mid-exponential growth (OD600 = 0.8). These conditions abrogated both detectable pyrazine and pyrazinone production. At this point, 10 µM of compound in DMSO, were added to the cultures; an equal volume of DMSO was added to cultures without compound as a solvent vehicle control. The cultures were incubated under aerobic conditions with the compounds for one hour at 30 °C and at 250 rpm. After incubation, the cultures were centrifuged, the supernatants were decanted, and the cell pellets were quickly resuspended in 5 mL of Bacterial RNAProtect (Qiagen). The samples were centrifuged again, and the pellets were frozen on dry ice and stored at −80 °C until RNA extraction. The processed cell pellets were thawed on ice and resuspended in 200 µL of lysis buffer (10 mM Tris, 1 mM EDTA, 5 mg/mL lysozyme, 12.5 µg/mL proteinase K [pH 8.0]) and incubated at room temperature for 10 min. The RNA was extracted via the Qiagen RNeasy Mini kit, treated with TURBO DNase in a total volume of 100 µL at room temperature for 30 min, and extracted again using an RNeasy Mini kit. RNA-seq analysis was conducted by the Yale Center for Genome Analysis. Sequences were aligned to the K. oxytoca ATCC 8724 genome (NC_016612.1). Differential expression analysis was performed through DESeq2 and pathway enrichment analysis was performed through the Funage-Pro web-based platform.

## CC(C)Cc1ncc(CCCCNC(=N)N)[nH]c1=O [3-Homo]
[1]
  GPCR activation (heatmap value): 0.6697
[1]; Log(10)Conc (M) -4
  HRH2 dose-response raw reporter signal (Fig. 5b source data): 77 and 94 and 47
[1]; Log(10)Conc (M) -5
  HRH2 dose-response raw reporter signal (Fig. 5b source data): 50 and 38 and 83
[1]; Log(10)Conc (M) -6
  HRH2 dose-response raw reporter signal (Fig. 5b source data): 68 and 53 and 83
[1]; Log(10)Conc (M) -7
  HRH2 dose-response raw reporter signal (Fig. 5b source data): 59 and 65 and 91
[1]; Log(10)Conc (M) -8
  HRH2 dose-response raw reporter signal (Fig. 5b source data): 56 and 50 and 59
[1]; Log(10)Conc (M) -9
  HRH2 dose-response raw reporter signal (Fig. 5b source data): 44 (2×) and 59
[1]; Log(10)Conc (M) -10
  HRH2 dose-response raw reporter signal (Fig. 5b source data): 53 and 62 (2×)
[1]; Log(10)Conc (M) -11
  HRH2 dose-response raw reporter signal (Fig. 5b source data): 29 and 53 and 74
[1]; Log(10)Conc (M) -12
  HRH2 dose-response raw reporter signal (Fig. 5b source data): 50 and 65 and 53
[1]; Log(10)Conc (M) -13
  HRH2 dose-response raw reporter signal (Fig. 5b source data): 53 and 27 and 91
[1]; Log(10)Conc (M) -14
  HRH2 dose-response raw reporter signal (Fig. 5b source data): 41 and 77 and 68
[1]; Log(10)Conc (M) -15
  HRH2 dose-response raw reporter signal (Fig. 5b source data): 47 and 29 and 100
[2]
  GPCR activation (heatmap value): 2.481
  EC50: 2.7 µM
[2]; Log(10)Conc (M) -5
  HRH4 dose-response raw reporter signal (Fig. 5b source data): 18151 and 17815
[2]; Log(10)Conc (M) -6
  HRH4 dose-response raw reporter signal (Fig. 5b source data): 6385 and 6598
[2]; Log(10)Conc (M) -7
  HRH4 dose-response raw reporter signal (Fig. 5b source data): 1365 and 1430
[2]; Log(10)Conc (M) -8
  HRH4 dose-response raw reporter signal (Fig. 5b source data): 793 and 758
[2]; Log(10)Conc (M) -9
  HRH4 dose-response raw reporter signal (Fig. 5b source data): 522 and 575
[2]; Log(10)Conc (M) -10
  HRH4 dose-response raw reporter signal (Fig. 5b source data): 463 and 475
[2]; Log(10)Conc (M) -11
  HRH4 dose-response raw reporter signal (Fig. 5b source data): 357 and 469
[2]; Log(10)Conc (M) -12
  HRH4 dose-response raw reporter signal (Fig. 5b source data): 542 and 504
[2]; Log(10)Conc (M) -13
  HRH4 dose-response raw reporter signal (Fig. 5b source data): 404 and 363
[2]; Log(10)Conc (M) -14
  HRH4 dose-response raw reporter signal (Fig. 5b source data): 351 and 360
[2]; Log(10)Conc (M) -15
  HRH4 dose-response raw reporter signal (Fig. 5b source data): 333 and 448

## CC(C)Cc1ncc(CCCNC(=N)N)[nH]c1=O [compound 3]
[1]
  GPCR activation (heatmap value): -0.4047
[1]; Log(10)Conc (M) -4
  HRH2 dose-response raw reporter signal (Fig. 5b source data): 18 and 44 and 35
[1]; Log(10)Conc (M) -5
  HRH2 dose-response raw reporter signal (Fig. 5b source data): 83 and 74 and 44
[1]; Log(10)Conc (M) -6
  HRH2 dose-response raw reporter signal (Fig. 5b source data): 38 (2×) and 44
[1]; Log(10)Conc (M) -7
  HRH2 dose-response raw reporter signal (Fig. 5b source data): 91 and 59 and 47
[1]; Log(10)Conc (M) -8
  HRH2 dose-response raw reporter signal (Fig. 5b source data): 50 (2×) and 41
[1]; Log(10)Conc (M) -9
  HRH2 dose-response raw reporter signal (Fig. 5b source data): 44 and 41 and 71
[1]; Log(10)Conc (M) -10
  HRH2 dose-response raw reporter signal (Fig. 5b source data): 53 and 47 and 59
[1]; Log(10)Conc (M) -11
  HRH2 dose-response raw reporter signal (Fig. 5b source data): 56 (2×) and 44
[1]; Log(10)Conc (M) -12
  HRH2 dose-response raw reporter signal (Fig. 5b source data): 41 (2×) and 27
[1]; Log(10)Conc (M) -13
  HRH2 dose-response raw reporter signal (Fig. 5b source data): 29 and 47 and 56
[1]; Log(10)Conc (M) -14
  HRH2 dose-response raw reporter signal (Fig. 5b source data): 106 and 71 and 50
[1]; Log(10)Conc (M) -15
  HRH2 dose-response raw reporter signal (Fig. 5b source data): 100 and 35 and 29
[2]
  GPCR activation (heatmap value): 2.217
  EC50: 12.5 µM
[2]; Log(10)Conc (M) -5
  HRH4 dose-response raw reporter signal (Fig. 5b source data): 8773 and 9531
[2]; Log(10)Conc (M) -6
  HRH4 dose-response raw reporter signal (Fig. 5b source data): 1621 and 2108
[2]; Log(10)Conc (M) -7
  HRH4 dose-response raw reporter signal (Fig. 5b source data): 649 and 769
[2]; Log(10)Conc (M) -8
  HRH4 dose-response raw reporter signal (Fig. 5b source data): 454 and 619
[2]; Log(10)Conc (M) -9
  HRH4 dose-response raw reporter signal (Fig. 5b source data): 531 and 542
[2]; Log(10)Conc (M) -10
  HRH4 dose-response raw reporter signal (Fig. 5b source data): 578 and 380
[2]; Log(10)Conc (M) -11
  HRH4 dose-response raw reporter signal (Fig. 5b source data): 348 and 430
[2]; Log(10)Conc (M) -12
  HRH4 dose-response raw reporter signal (Fig. 5b source data): 348 and 454
[2]; Log(10)Conc (M) -13
  HRH4 dose-response raw reporter signal (Fig. 5b source data): 286 and 351
[2]; Log(10)Conc (M) -14
  HRH4 dose-response raw reporter signal (Fig. 5b source data): 262 and 481
[2]; Log(10)Conc (M) -15
  HRH4 dose-response raw reporter signal (Fig. 5b source data): 292 and 283
[3]; one hour, vs DMSO, Padj < 0.05, abs(log2FC) > 1
  number of differentially regulated genes: 561 genes
[3]; vs DMSO control, RNA-seq
  effect on enterobactin BGC transcription: significantly enhanced transcription of the enterobactin BGC
[3]; Funage-Pro, 3 upreg
  KEGG pathway enrichment neglogP: ABC Transporters, upregulated: 5.638
  KEGG pathway enrichment neglogP: Biosynthesis of siderophore group nonribosomal peptides, upregulated: 9.097
[3]; RNA-seq, pyrazinone 3 compared with pyrazine 7
  effect on yersiniabactin BGC transcription: prominently upregulated the yersiniabactin BGC
